Series [1] is described as follows: Precipitation on addition of stock solution to cell culture media. It is filed as physicochemical. As for the experimental part: (§1) HaCaT cells were grown in regular culture media as described in example 1 and seeded in 12-well plates with density at 2×10^5 cells per well and 1 ml of culture medium in each well. NRH stock solution was prepared in ethanol at 100 mM (25.6 mg/ml) and stored at −20° C. Stock solutions of NRH esters were made at 50 mM in DMSO (see FIG. 9B for compound info). Cells were treated with NRH esters and NRH at 150 μM for 6 and 16 hrs, washed twice with PB S containing 5 mM EDTA, and then subject to Nicotinamide adenine dinucleotide (NAD) measurement as described in example 23.
HaCaT cells were grown in regular culture media as described above and seeded in 12-well plates with density at 2×10^5 cells per well and 1 ml of culture medium in each well. NRH stock solution was prepared in ethanol at 100 mM (25.6 mg/ml) and stored at −20° C. NRH (200 μM) was used as a positive control. Because of the possible solubility issue related to NRH monoC16, fatty acid-free bovine serum albumin (defatted BSA, Sigma) was used as a carrier for the compound. NRH monoC16 stock solution (100×) was complexed with defatted BSA ([…]) prior to the treatment, resulting in a NRH monoC16 stock solution (10 ×). NRH monoC16 was then added to the culture media giving a final BSA concentration of 100 μM. […] Defatted BSA was also added to the control samples at a final concentration of 100 μM. […]

Series [2] can be described thus: Gravimetric Vapor Sorption (GVS). Format: physicochemical. The note with it: 90% RH, 25° C. As for the experimental part: Gravimetric Vapor Sorption (GVS): Samples were analyzed using a VTI corporation (now part of TA Instruments) SGA-100 with Cahn microbalance equipped with quartz sample and reference pans. Samples were dried in the SGA-100 under dry nitrogen for 5 hours at 25° C. followed by a moisture absorption step ramp from 5% relative humidity (RH) to 95% or 90% RH followed by a desorption step ramp back to 5% or 10% RH (all steps at 25° C.). The samples were held at each % RH step for 4 hours.

The subject of series [3] is HaCaT cells (a human keratinocyte cell line). The series is described as follows: Intracellular NAD measurement in HaCaT cells (ADPR cyclase enzymatic assay, absorbance 405 nm). It is filed as cell-based. As for the experimental part: HaCaT cells (AddexBio Technologies, San Diego, Calif., Passage 16-19) were grown in Medium DMEM/GlutMax (Life technologies, Grand Island, N.Y.) supplemented with 10% FBS (Life technologies) and Non-essential amino acids (NEAA, Life technologies) and then seeded in 12-well plates (Corning, Tewksbury, Mass.) with a density at 2×10^5 cells per well and 2 ml of culture medium in each well for overnight.
Stock solution of dihydronicotinamide riboside (NRH, GSK3008320A, GSK, RTP, NC) was prepared in ethanol at 100 mM (25.6 mg/ml) and stored at −20° C. Cells were treated with different concentrations of NRH for 3 hrs, washed twice with PBS containing 5 mM EDTA, and then subject to Nicotinamide adenine dinucleotide (NAD) measurement. In brief, acetonitrile (ACN) lysis buffer (Ammonium Acetate (50 mM) and 90% acetonitrile) was added to each well (200 μl/well) to lyse the cells at RT for 5-10 mins by gently rotating on a culture plate shaker at a low speed. Enzyme master mix (300 μM of 5-Amino-(3,4′-bipyridin)-6(1H)-one (Inamrinone) (Sigma-Aldrich), a substrate for ADP ribosyl cyclase (ADPR cyclase)) and 30 nM ADPR Cyclase (Sigma, St. Louis, Mo.), 7.5 μM of N-(2-fluoro-4-(methylsulfonyl)phenyl)-2-methyl-6-(thiazol-5-yl)isonicotinamide (a CD38 inhibitor) in 75 mM HEPES pH7 buffer (Life Technologies)) was added to the lysed cells (400 μl of enzyme master mix/well). Enzymatic reaction was incubated at RT for ˜30 min. At the end of incubation, the supernatant (200 μl) of the reaction solution from each well was transferred to each well of a 96-well plate and absorbance was read twice in the 96-well plate at 405 nm using a plate reader (Spectra Maxplus, Molecular Devices, Sunnyvale, Calif.). A mixture of enzyme master mix and ACN extraction solution at 2:1 ratio was used as a blank reference. NAD (Sigma) was used as a positive control.
HaCaT cells were grown as described in example 23 in the regular cell culture DMEM medium as described earlier or in the Epilife medium without nacinamide (Life Technologies). Cells were treated with different concentrations of NRH or niacinamide (NIA, DSM nutritional products) for 3 hrs, washed twice with PBS containing 5 mM EDTA, and then subject to Nicotinamide adenine dinucleotide (NAD) measurement as described in example 23. A mixture of enzyme master mix and ACN extraction solution at 2:1 ratio for a blank reference. NAD (Sigma) was used as a positive control. […] Both the CD38 inhibitor and Niacinamide increased NAD in the HaCaT cells cultured in the Vit B3 depleted culture medium, and the induction of NAD by niacinamide was dose-dependent (solid bars). However, the induction of NAD by niacinamide (highest at ˜1.5 fold) was low compared to those by NRH. Therefore, NRH is a stronger NAD inducer compared to a CD38 inhibitor or Niacinamide.
as §1
HaCaT cells were grown in regular culture media as described above and seeded in 12-well plates with density at 2×10^5 cells per well and 1 ml of culture medium in each well. NRH stock solution was prepared in ethanol at 100 mM (25.6 mg/ml) and stored at −20° C. NRH (200 μM) was used as a positive control. Because of the possible solubility issue related to NRH monoC16, fatty acid-free bovine serum albumin (defatted BSA, Sigma) was used as a carrier for the compound. NRH monoC16 stock solution (100×) was complexed with defatted BSA ([…]) prior to the treatment, resulting in a NRH monoC16 stock solution (10 ×). […]

The test system of another series is HaCaT cells. The series can be described thus: H2O2-induced reactive oxygen species (ROS) in HaCaT cells (CellROX deep red). It is filed as cell-based, human. Particulars: 3 hr pre-incubation then 250 μM H2O2, Hydroxyterosol 0.005%, niacinamide 4.5 mM, NRH several concentrations. As for the experimental part: HaCaT cells were grown as described in example 23 and were seeded in 96-well plates (Nunc™ black with optical bottom, Thermo Fisher Scientific, Inc., Waltham, Mass.) with a density at 2×10^4 cells per well and 100 μl medium in each well, and grown overnight before treatments. Stock solutions of NRH and other test compounds were prepared and diluted to 2× of final treatment concentrations in DMEM medium in 96-well storage plate as indicated in the FIG. 11. HaCaT Cells were treated in triplicates by adding 100 μl of diluted solutions of test compounds (2×) to each well containing 100 μl medium already. Cells were incubated in the presence of test compounds for 3 hrs. At the end of 3 hr incubation, cells were washed once with 200 μl DPBS with Ca^++ and Mg^++ (Life Technologies) and then fed with 100 μl DMEM medium each well containing H2O2 at 250 μM (as a ROS (reactive oxygen species) inducer, Sigma). After 30 min incubation, cells were washed once with 200 μl DPBS with Ca^++ and Mg^++ and CellROX deep red reagent (2.5 mM stock solution, Life Technologies) was added to the medium to a final concentration of 5 μM. After 1 hr incubation at 37° C., 5% CO2, Cells were washed for 3 times with DPBS, fluorescence signal was read at Ex. 640 nm and Em. 665 nm in Biotek Synergy H4 microplate reader (BioTek, Winooski, Vt.). Untreated cells were served as controls (normalized to 1). All the treated samples were normalized to the untreated control.

Series [4] deals with Reconstructed human epidermis (EpiDerm, EPI-200). The series is described as follows: UVB-induced inflammation mediators in reconstructed epidermal equivalents. It is filed as cell-based. Particulars: topical 1 hr pre-treatment, NRH 0.1% or niacinamide 3%, UVB 150 mJ/cm^2, media 6 hr post irradiation. An excerpt:
Solar Ultraviolet (UV) light exposure on skin causes photoaging, sunburn, DNA damages and carcinogenesis. UV radiation (UVR) also results in inflammation, which can be measured in vitro by pro-inflammatory mediators, e.g., TNF-α, IL-8. The in vitro reconstructed human epidermis (RHE) model is used to evaluate the anti-inflammatory effect of NRH.
Reconstructed human epidermis (EpiDerm, EPI-200, made of normal human epidermal keratinocytes, MatTek, Ashland, Mass.), were placed into media (EPI-100-ASY, 1.0 ml/well of 6-well plates) and incubated overnight at 37° C./5% CO2. The media was replenished with fresh culture media prior to study. NRH at 0.1% and niacinamide at 3% in vehicle (50% H2O/35% ethanol/15% propylene glycol, v/v/v) were applied topically at 6 μl and then gently spread onto the skin equivalents (˜20 rotations) using the rubber side of a plunger of 1 ml syringe. Vehicle was served as an untreated control. After 1 hr pre-treatment with NRH, niacinamide, or vehicle control, the EpiDerm tissues were transferred to a sterile 6-well plate containing 1 ml of DPBS per well and then exposed to UVB at 150 mJ/cm^2. The Newport Solar Simulator System (Power unit 69920, and Lamp 91192-1000, Newport Corporate, Irvine, Calif.) was used as the UVB emitter to achieve a UVB irradiation of 150 mJ/cm^2. Measurement of the irradiation was taken using an ILT-1400 Handheld, Portable Radiometer/Photometer (International Light Technologies, Inc., Peabody, Mass.) with a UVB detector (SEL240/T2ACT5, 235-307 nm, International Light Technologies, Inc.). After UVB irradiation, EpiDerm tissues were transferred back to the 6-well plate containing media and incubated at 37° C./5% CO2 for 6 hours. At the end of the incubation (6 hr post UVB irradiation), culture media were collected for the measurement of IL-8, and TNF-α concentration by MagPix (Millipore, HCYTOMAG-60K).

Another series relates to Human dermal fibroblasts. The series can be described thus: TNFα-induced gene expression in dermal fibroblasts (QPCR). It is filed as cell-based. Particulars: TNFα 10 ng/ml, 30 hr. As for the experimental part:
Human dermal fibroblasts were grown in regular culture media as described in example 23 above and seeded in 12-well plates at 2×10^5 cells per well for overnight. Cells were then replenished with fresh medium and treated with TNFα (10 ng/ml) with and without NRH (200 μM) for 30 hr. At the end of the incubation, cells were washed once with HBSS with Ca^2+ and Mg^2+ (Life Technologies), and subject to RNA isolation and QPCR analyses.

Setting [5] is: HaCaT in Vit B3 depleted culture medium, 3 hrs.

With `CCCCCCCCCCCCCCCC(=O)OC[C@H]1O[C@@H](N2C=CCC(C(N)=O)=C2)[C@H](O)[C@@H]1O` [NRH monoC16], the “precipitation when stock solution added to the media” value in series [1] (50 mM DMSO stock added to culture media, 150 μM) was “noticeable precipitations occurred”. In addition, the “precipitation in culture media” value in series [1] (stock complexed with defatted BSA, final BSA 100 μM) is reported as “no precipitation was observed”. For the same molecule, the “GVS weight gain from the dried state” value in series [2] was “approximately 7%”. Further, the NAD boosting activity result in series [3] (HaCaT, 150 μM, 6 and 16 hrs) is recorded as “higher NAD boosting activity compared to all the other tested NR esters”. Moreover, the “activity after 24 hr compared with 6 hr treatment” value in series [3] (HaCaT, defatted BSA carrier) was “a higher activity was observed”. Further, in series [3] (HaCaT, different concentrations, defatted BSA carrier (100 μM), 6 and 24 hrs), the NAD levels result is on record as “increases NAD levels in a dose dependent manner”. Besides, the “NAD boosting activity relative to NRH” value in series [3] (HaCaT, same concentrations, defatted BSA carrier) is “slightly lower than that of NRH”.
For the molecule `NC(=O)c1cccnc1` [Niacinamide, pyridine-3-carboxamide, reference compound], the “H2O2-induced ROS” value in the series on HaCaT cells is “did not inhibit”. In addition, the NAD elevation result in series [3] (HaCaT in DMEM medium with Vit B3, highest tested doses, 3 hrs) was “did not lead to NAD elevation”. Besides, in series [3] (setting [5]), the NAD level result is “increased NAD”, the “dose dependence of induction of NAD” value is on record as “dose-dependent” and the “induction of NAD (highest)” value is on record as about 1.5 fold. In series [4], the “UVB-induced IL-8” value is on record as “not” and the “UVB-induced TNF-α” value is “not”. In series [4] (listed as niacinamide), the “UVB-induced IL-8” value is given as “did not inhibit” and the “UVB-induced TNF-α” value is given as “did not inhibit”.
In the case of TNF-α, the COX-2 gene expression result with Human dermal fibroblasts is “induced COX-2 gene expression”.

The values are drawn from patent publication US10485814B2, “Nicotinamide riboside analogs and pharmaceutical compositions and uses thereof” (GlaxoSmithKline Intellectual Property (No. 2) Limited, priority 2014, dated 2019).
